# Data taken from patent US6632981B1, “DNA sequences encoding polypeptides having beta-1,3-glucanase activity” (Novartis Finance Corporation, priority 1988, dated 2003).
# Columns and labels:
# [1] = test system: chemically regulatable chimeric genes coding for GUS, AHAS or BT; experiment: Primer extension assay for mRNA of chemically regulatable chimeric genes; type: in vivo; settings: callus or regenerated plant material from transgenic plants; level proportional to amount of regulator applied
# Protocol: 50 g of total RNA is lyophilized in a 500 l Eppendorf tube. The RNA is resuspended in 30 l of radiolabeled probe solution and heated to 70′ C. for 10 minutes. The tube is slowly cooled to 37° C. and allowed to incubate overnight. Without removing the tube from the 37° C. water bath, 2 l of 10×reverse-transcriptase buffer (500 mM Tris-HCl, pH 7.5, 400 mM KCl, 30 mM MgCl2), 1 l 5 mg/ml bovine serum albumin, 5 l 100 mM dithiothreitol, 5 l 10×dNTPs (10 mM of each dNTP in H2O), 3 l H 20, 2 l RNasin (80 units), and 2 l reverse transcriptase (400 units) are added and the reaction is incubated at 37° C. for 30 minutes. To stop the reaction, 5 l of 3 M sodium acetate, pH 5, and 150 l absolute ethanol are added. The tube is left at −20° C. for 30 minutes, the precipitate is collected by centrifugation, washed with 80% ethanol and allowed to air-dry. The precipitate is resuspended in 10-20 l of loading dye (90% formamide, 0.05% bromophenol blue, 0.05% xylene cyanol, 1 mM EDTA) and the extension products are separated on a 6% sequencing gel (Maniatis, T. et al., supra). Extension products are visualized by autoradiography.
# Plant materials induced and harvested as in Examples 140 to 142 are assayed for the induction of mRNA species by the isolation of RNA and the primer extension assay as described in Example 6.
# The level of mRNA is proportional to the amount of regulator applied.
# [2] = test system: PR-1 promoter-LUC gene fusion; experiment: Chemical induction of the Arabidopsis PR-1 promoter-LUC gene fusion; type: in vivo
# Description: pAtPR1-R was cleaved with XhoI and SacI and transferred to SalI/SacI cleaved pCIB200 to create a binary vector construction (pAtPR1-S) suitable for Arabidopsis transformation (see example 28). pAtPR1-S was then transferred to Agrobacterium tumefaciens strain A136/pCIB542 for transfer to Arabidopsis Dijon-0 using the method described by Wen-jun and Forde, Nucl. Acids Res. 17: 8385-8386 (1989). T2 or […] lines carrying the PR1-LUC transgene in the homozygous state were generated for chemical induction analysis.
# Leaves of transgenic Arabidopsis lines carrying the PR-1 promoter-LUC gene fusion were treated by spraying with 0.15 g/ml INA (isonicotinic acid) for 48 h. Five days later, sprayed leaves were analyzed for luciferase activity using the Promega Luciferase Assay System (Cat. #E 1500). […] In other assays, luciferase activity was measured by imaging lines for bioluminescence using intensified cameras (VIM) and photon-counting image processors (ARGUS-50 or ARGUS-100) from Hamamatsu Photonic Systems (Bridgewater, N.J.). Leaves were sprayed with INA and subsequently with a 5 mM solution of D-luciferin (Analytical Bioluminescence Laboratories, San Diego, Calif.) 24 h before and then immediately before imaging.
# SAR response = experiment: Chemical induction of SAR in nahG-expressing plants; type: in vivo, Nicotiana tabacum cv Xanthi-nc; settings: plants of lines nahG-3, -8 and -10 (blocked in SAR response to disease infection) treated with the inducing chemical
# Description: Three lines, nahG-3, -8 and -10, were shown above to express high levels of nahG mRNA and salicylate hydroxylase protein, and to be blocked in their SAR response to disease infection.
# [3] = test system: PR-1a promoter fused to the GUS reporter gene; experiment: Chemical regulation of PR-1a promoter/GUS in nahG-expressing plants; type: in vivo; settings: progeny of PR-1a promoter/GUS plants crossed to nahG-3, -8 and -10
# Description: Consequently, the chemical regulation of the PR-1a gene promoter can be utilized without the activation of the endogenous cell signal SA.
# [4] = test system: PR-1a promoter fused to a gene encoding the delta-endotoxin of Bacillus thuringensis; experiment: Chemical regulation of PR-1a promoter/Bacillus thuringiensis delta-endotoxin gene in nahG-expressing plants; type: in vivo; settings: progeny of PR-1a promoter/delta-endotoxin plants crossed to nahG-3, -8 and -10
# salicylic acid = experiment: Antagonism of the salicylic acid cell signal on exogenous application to a plant; type: in vivo; settings: applied exogenously to a plant
# Description: Those skilled in the art will appreciate that other means can be employed to achieve the same effect. For instance, a second method involves the expression or overexpression in a transformed plant of a gene encoding an enzyme which catalyzes the modification; e.g., degradation, of a metabolic precursor of the signal molecule so that the plant is rendered incapable of producing the signal molecule. A third method involves the external application to the plant of antagonists of the target cell signal. […] Instead, inhibition of the cell signal response is effected. […] See, Yang and Hoffman, Ann. Rev. Plant Physiol. 35:155-189 (1984).
smiles,measurement,setting,value
"O=C(O)c1cc(Cl)nc(Cl)c1 [2,6-dichloroisonicotinic acid]","level of mRNA of the chimeric gene (GUS, AHAS or BT primer), primer extension assay",[1],elevated levels of mRNA
"O=C(O)c1ccncc1 [INA, isonicotinic acid]","bioluminescence (imaging, photon counting)","[2]; compared to water-treated controls, D-luciferin 5 mM",strongly induced bioluminescence
same,"luciferase activity, induction over controls","[2]; leaves sprayed with 0.15 g/ml for 48 h, analyzed five days later, Promega Luciferase Assay System",144 fold
"CCC(C)N(N)C(=O)c1cccc2nnsc12 (centres unmarked) [benzo-1,2,3-thiadiazole-7-carboxylic acid N-sec-butylhydrazide]","level of mRNA of the chimeric gene (GUS, AHAS or BT primer), primer extension assay",[1],elevated levels of mRNA
"O=C(O)c1cccc2nnsc12 [benzo-1,2,3-thiadiazole-7-carboxylic acid]","level of mRNA of the chimeric gene (GUS, AHAS or BT primer), primer extension assay",[1],elevated levels of mRNA
same,SAR response,SAR response,shown to possess the SAR response
same,GUS expression,[3],express GUS
same,endotoxin gene expression,[4],express the endotoxin gene
"O=C(OCc1ccccc1)c1cccc2nnsc12 [benzyl benzo-1,2,3-thiadiazole-7-carboxylate]","level of mRNA of the chimeric gene (GUS, AHAS or BT primer), primer extension assay",[1],elevated levels of mRNA
"CCCOC(=O)c1cccc2nnsc12 [n-propyl benzo-1,2,3-thiadiazole-7-carboxylate]","level of mRNA of the chimeric gene (GUS, AHAS or BT primer), primer extension assay",[1],elevated levels of mRNA
CC[Si](CC)(CC)c1ccccc1C(=O)O [o-triethylsilyl benzoic acid],effect on the salicylic acid cell signal,salicylic acid,antagonistic effect
